From patent EP1087941B9, “THIOLESTERS AND USES THEREOF” (THE UNITED STATES OF AMERICA, as represented by THE …, priority 1998, dated 1999)

How the values were obtained:
[1] = tested on: fusion of the HL2/3 and MAGI-CCR-5 cells; experiment: Fusion assay, HL2/3 and MAGI-CCR-5 co-culture with beta-galactosidase reporter; type: cell-based; settings: for IC50: Table 7, read-out: Fusion I50
Method: Determination of the effect of the test compounds on viral fusion were carried out as follows. Briefly, HL2/3 cells stably expressing HIV-1 Tat and cell surface gp120 and MAGI-CCR-5 cells stably expressing CD4 and CCR5 on their cell surface, containing a β-galactosidase reporter gene under the control of the HIV-1 LTR were pretreated with test compound for 1 h at 37°C. After incubation, the cells were mixed in a 4 to 1 ratio (2 x 10^5 MAGI-CCR-5 to 8 x 10^5 HL2/3 cells) and co-cultured for 18 h at 37°C; cultures were fixed and stained with X-gal solution for β-galactosidase activity. Blue cells represented the Tat transactivation of the HIV-1 LTR upon fusion of the HL2/3 and MAGI-CCR-5 cells via the CD4/CCR5 co-receptor gp 120 interaction.

NCp7 = molecular target: T1, NCp7 (Human immunodeficiency virus type 1 group M subtype B, UniProt P03347); experiment: NCp7 binding to packaging-site oligonucleotide, electrophoretic mobility shift assay; type: biochemical, HIV-1; settings: for concentration at which NCp7-oligonucleotide complex formation was inhibited: EMSA on nondenaturing polyacrylamide gels; for IC50: Table 9, read-out: Nucleic Acid Binding (I50 µM)
T1 construct: within the nucleocapsid p7 (NCp7) protein portion of the polyprotein
Method: Zinc finger reactivity was measured using a Zn specific fluorochrome, TSQ, N-(6-methoxy-8-quinolyl) -p-toluenesulfonamide, assay or a Trp37 zinc finger fluorescence assay. Fluorescent measurements of the Trp37 residue in the C-terminal finger of recombinant HIV-1 NCp7 protein were performed as described by Rice (1995) Science 270:1194-1197; Rice (1997) Antimicrob. Agents Chemother. 41:419-426. Measurement of Zn ejection from both fingers was measured using the Zn-selective fluorchrome probe TSQ (Molecular Probes, Eugene OR) as described by Rice (1996) J. Med. Chem 39:3606-3616. Measurement of the ability of NCp7 to bind to a DNA oligomer, a 44 mer: GGCGACTGGTGAGTACGCCAAAAATTTTGACTAGCGGAGGCTAG (SEQ ID NO:1), analogous to the HIV-1 RNA packaging site was carried out as described by Huang (1998) J. Med. Chem. 41:1371-1381, see also, Rossio (1998) HIV Pathogenesis and Treatment: Keystone Symposium on Molecular and Cellular Biology, Abstract # 4082. Briefly, 50 nM NCp7 was treated with test compounds for 1 hour at RT in […] buffer containing 10% glycerol and 50 mM Tris-HCl (pH 7.5). Labeled oligomer (0.1 picomole, end labeled [^32P]) was added in an equal volume of buffer containing 10% glycerol, 50 mM Tris-HCl (pH 7.5), 400 mM KCl and 40 mM MgCl2. The reaction was continued for 15 min at room temperature, and a total of […] (or 1/4 of the total reaction volume) was separated on nondenaturing 4.5% polyacrylamide gels in 0.5X Tris-Borate electrophoresis buffer. NCp7-oligomer complexes were visualized by autoradiography.
Interaction of zinc finger inhibitors with NCp7 can result in loss of protein structure and their ability to specifically bind oligonucleotides representing the HIV-1ψ packaging site (Huang (1998) supra; Tummino (1997) Antimicrob. Agents Chemother. 41:394-400; South (1993) Protein Sci. 2:3-19; Dannull (1994) EMBO J. 13:1525-1533). The ability of NCp7 to specifically associate with these oligonucleotides after treatment of the protein with a thiolester of the invention was tested. For example, compounds 44, 45 or 47 were very effective at inhibiting Ncp7's ability to associate with target oligonucleotide, as determined using electrophoretic mobility shift assays (EMSA) on nondenaturing polyacrylamide gels. At 1 µM, compound 45 inhibited complex formation. Compounds 44 and 47 inhibited complex formation at 100 µM (see Table 9).

[2] = molecular target: T2, recombinant HIV-1 integrase (Human immunodeficiency virus type 1 group M subtype B, UniProt P03366); experiment: Integrase 3' processing and strand transfer assay; type: biochemical; settings: for IC50: Table 7, high dose test of 100 µM, read-out: Integrase I50
T2 construct: The ability of recombinant HIV-1 integrase; S. Hughes, ABL Basic Research NCI-FCRDC, Frederick MD (supplied, not a catalogue product)
Method: The 5-bromovaleroyl thioester, compound 44, and two 5-pyridiniovaleroyl thioesters, compounds 45 and 47, were analyzed in mechanistic and target-based assays. […] Assays for activity against HIV-1 reverse transcriptase rAdT (template/primer) and rCdG (template/primer) using recombinant HIV-1 reverse transcriptase (S. Hughes, ABL Basic Research NCI-FCRDC, Frederick MD) were performed as described by Rice (1997) supra. Substrate cleavage of recombinant HIV-1 protease in the presence of test compounds using an HPLC-based methodology with the artificial substrate Ala-Ser-Glu-Asn-Try- Pro-Ile-Val-amide (Multiple Peptide Systems, San Diego CA) was performed as described by Rice (1997) supra. The ability of recombinant HIV-1 integrase (S. Hughes, ABL Basic Research NCI-FCRDC, Frederick MD) to carry out 3' processing and strand transfer activities in the presence of test compounds was performed as described by Buckheit (1994) AIDS Res. Hum. Retroviruses 10:1497-1506, and Turpin (1998) Antimicrob. Agents Chemother. 42: 487-494.

SMILES | inhibition of fusion to host cells [1] | IC50 [1] | concentration at which NCp7-oligonucleotide complex formation was inhibited (NCp7) | IC50 (NCp7) | inhibition of HIV-1 integrase enzyme activity [2] | IC50 [2]
CC(=O)NS(=O)(=O)c1ccc(NC(=O)c2ccccc2SC(=O)CCCCBr)cc1 [Compound 44, N-[2-(5-bromovaleroylthio)benzoyl]sulfacetamide] | did not inhibit | > 100 µM | 100 µM | 100 µM | did not inhibit | > 100 µM
CC(=O)NS(=O)(=O)c1ccc(NC(=O)c2ccccc2SC(=O)CCCC[n+]2ccccc2)cc1 [Compound 45, N-[2-(5-pyridinio-valeroylthio)benzoyl]sulfacetamide bromide] | did not inhibit | 77 µM | 1 µM | 1 µM | did not inhibit | > 100 µM
O=C(CCCC[n+]1ccccc1)Sc1ccccc1C(=O)Nc1ccc(S(=O)(=O)c2ccc([N+](=O)[O-])cc2)cc1 [Compound 47] | did not inhibit | 99 µM | 100 µM | – | did not inhibit | –
